These results are taken from ChEMBL document CHEMBL1201862, “PubChem BioAssay data set” (2004).

Calls of active or inactive are those of the source.

Holding throughout (format): functional
Experiment [1] deals with T1, Replicative DNA helicase DnaB (Mycobacterium tuberculosis, UniProt P9WMR3).
T1 sequence (P9WMR3 whole entry): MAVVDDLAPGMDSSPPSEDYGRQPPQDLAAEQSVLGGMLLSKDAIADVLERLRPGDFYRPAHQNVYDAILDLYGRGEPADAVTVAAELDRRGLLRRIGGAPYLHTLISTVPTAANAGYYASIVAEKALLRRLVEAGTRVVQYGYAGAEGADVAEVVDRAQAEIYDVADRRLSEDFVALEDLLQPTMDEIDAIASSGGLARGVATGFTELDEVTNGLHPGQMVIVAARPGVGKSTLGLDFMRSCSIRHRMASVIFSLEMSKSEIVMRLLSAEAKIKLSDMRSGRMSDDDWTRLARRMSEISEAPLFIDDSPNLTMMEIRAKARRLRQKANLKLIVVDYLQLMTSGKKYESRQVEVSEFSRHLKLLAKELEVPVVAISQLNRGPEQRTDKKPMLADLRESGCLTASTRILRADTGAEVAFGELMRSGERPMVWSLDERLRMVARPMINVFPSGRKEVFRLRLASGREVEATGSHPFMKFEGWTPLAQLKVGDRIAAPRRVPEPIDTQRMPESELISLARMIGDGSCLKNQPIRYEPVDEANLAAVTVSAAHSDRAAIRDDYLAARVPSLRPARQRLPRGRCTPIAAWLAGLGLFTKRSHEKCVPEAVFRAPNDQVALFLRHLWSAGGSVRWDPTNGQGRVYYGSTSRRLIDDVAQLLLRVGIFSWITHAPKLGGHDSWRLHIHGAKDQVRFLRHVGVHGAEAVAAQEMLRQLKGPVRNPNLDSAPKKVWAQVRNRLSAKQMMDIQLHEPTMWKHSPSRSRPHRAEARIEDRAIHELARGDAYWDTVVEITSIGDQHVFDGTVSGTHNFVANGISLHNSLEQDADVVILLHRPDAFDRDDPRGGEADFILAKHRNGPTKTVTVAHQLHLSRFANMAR
Briefly: DnaB intein splicing inhibitors, dose response, biochemical, cell-free fluorescence (AID 449749).

Experiment [2] has as its target T2, Protein RecA (Mycobacterium tuberculosis, UniProt P9WHJ3).
T2 sequence (P9WHJ3 whole entry): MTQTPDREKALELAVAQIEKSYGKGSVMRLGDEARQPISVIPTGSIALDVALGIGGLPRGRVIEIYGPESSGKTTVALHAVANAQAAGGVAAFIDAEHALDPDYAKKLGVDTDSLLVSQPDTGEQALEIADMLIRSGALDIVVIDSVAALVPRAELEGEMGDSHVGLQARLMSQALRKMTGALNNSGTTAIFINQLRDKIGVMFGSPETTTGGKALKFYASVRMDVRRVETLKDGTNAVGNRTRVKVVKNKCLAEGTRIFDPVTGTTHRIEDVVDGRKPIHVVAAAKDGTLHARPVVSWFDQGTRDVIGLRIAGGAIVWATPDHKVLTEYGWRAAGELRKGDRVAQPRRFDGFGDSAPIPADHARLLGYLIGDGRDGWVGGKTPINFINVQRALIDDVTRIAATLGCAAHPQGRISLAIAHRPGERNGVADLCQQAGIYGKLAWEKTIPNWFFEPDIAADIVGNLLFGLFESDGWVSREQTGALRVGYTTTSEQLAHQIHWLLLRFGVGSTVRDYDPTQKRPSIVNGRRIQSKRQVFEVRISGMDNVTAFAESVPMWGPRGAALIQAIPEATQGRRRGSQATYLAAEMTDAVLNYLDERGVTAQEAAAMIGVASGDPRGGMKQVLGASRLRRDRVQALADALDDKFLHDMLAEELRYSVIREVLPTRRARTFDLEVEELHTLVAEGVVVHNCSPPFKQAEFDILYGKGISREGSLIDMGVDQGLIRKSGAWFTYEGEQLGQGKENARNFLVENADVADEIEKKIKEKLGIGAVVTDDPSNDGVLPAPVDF
Kind of experiment: Fluorescence Cell-Free Homogeneous Dose Retest to Identify Inhibitors of RecA-Intein Splicing Activity. [Related pubchem assays (depositor defined):AID2097, AID2223, AID489010, AID492950].

The target of experiment [3] is T3, Apoptotic protease-activating factor 1 (Homo sapiens, UniProt O14727).
T3 sequence (O14727 whole entry): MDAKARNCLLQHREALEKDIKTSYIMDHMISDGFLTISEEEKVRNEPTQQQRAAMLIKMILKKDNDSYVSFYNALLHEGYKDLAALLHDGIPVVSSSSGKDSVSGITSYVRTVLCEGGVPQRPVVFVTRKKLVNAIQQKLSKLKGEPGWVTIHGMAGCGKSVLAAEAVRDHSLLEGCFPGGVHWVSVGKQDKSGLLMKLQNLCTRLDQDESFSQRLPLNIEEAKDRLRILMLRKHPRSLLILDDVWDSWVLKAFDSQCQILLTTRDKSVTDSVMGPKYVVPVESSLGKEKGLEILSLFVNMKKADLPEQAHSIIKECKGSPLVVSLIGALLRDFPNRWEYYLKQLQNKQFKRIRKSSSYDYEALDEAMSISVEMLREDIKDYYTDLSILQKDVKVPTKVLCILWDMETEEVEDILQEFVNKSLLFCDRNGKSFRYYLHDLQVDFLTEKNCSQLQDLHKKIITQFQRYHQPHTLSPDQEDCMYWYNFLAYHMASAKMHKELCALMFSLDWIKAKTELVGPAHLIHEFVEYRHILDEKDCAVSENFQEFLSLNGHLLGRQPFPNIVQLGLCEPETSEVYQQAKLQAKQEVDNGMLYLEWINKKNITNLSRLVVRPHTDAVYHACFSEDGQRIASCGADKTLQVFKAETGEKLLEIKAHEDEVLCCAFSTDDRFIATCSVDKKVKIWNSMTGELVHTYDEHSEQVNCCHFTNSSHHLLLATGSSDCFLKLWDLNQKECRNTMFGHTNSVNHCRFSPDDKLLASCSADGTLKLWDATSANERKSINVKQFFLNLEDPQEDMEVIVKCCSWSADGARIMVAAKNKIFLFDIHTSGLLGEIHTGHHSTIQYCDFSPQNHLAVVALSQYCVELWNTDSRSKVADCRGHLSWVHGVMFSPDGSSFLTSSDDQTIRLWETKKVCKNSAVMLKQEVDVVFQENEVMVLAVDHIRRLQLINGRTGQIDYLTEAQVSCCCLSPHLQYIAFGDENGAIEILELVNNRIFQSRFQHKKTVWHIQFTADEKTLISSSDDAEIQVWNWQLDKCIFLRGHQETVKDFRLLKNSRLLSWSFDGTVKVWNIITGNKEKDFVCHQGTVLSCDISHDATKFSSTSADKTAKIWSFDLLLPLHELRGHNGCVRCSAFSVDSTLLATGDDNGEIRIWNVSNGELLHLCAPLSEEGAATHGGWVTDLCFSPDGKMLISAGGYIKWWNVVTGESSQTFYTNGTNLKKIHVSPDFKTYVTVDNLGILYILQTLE

As to `CCc1ccc(S(=O)(=O)/N=C2\C=C(Nc3cccc(C(=O)O)c3)C(=O)c3ccccc32)cc1`, in experiment [1], the AC50 is 0.276 µM (active). The EC50 in experiment [2] was 0.216 µM (active). Further, the IC50 in experiment [3] is 7.07 µM (active).

In the case of `COc1cc2c(cc1OC)-c1c(OC)c(OC)cc3c1C(C2)N(C)CC3` (centres undefined), in experiment [1], the AC50 is 0.55 µM (active). For the same compound, the 50% effective concentration (EC50) in experiment [2] is 0.614 µM (active).

Consider `COc1cc(OC)c(NC2=CC(=O)C(=O)c3ccccc32)cc1Cl`, for which the IC50 in experiment [3] is 2.12 µM (active).

As for `CCCCCCCCCCOC(=O)Cn1c(COc2cccc(OC)c2)[n+](C)c2ccccc21`, in experiment [1], the AC50 is 4.32 µM (active). Also, the EC50 in experiment [2] was 9.7 µM (active). Besides, the IC50 in experiment [3] is 10.2 µM (active).
